According to patent US20090318465A1, “METHOD FOR IDENTIFYING COMPOUNDS THAT ACT AS INSULIN-SENSITIZERS” (priority 2006, published 2009):
“Also recorded” adds a separate entry of the source.

Columns and labels:
[1] = test system: dexamethasone treated insulin resistant 3T3-L1 adipocytes; assay: Insulin resistance assay (IR assay), 14C-2-deoxyglucose uptake; type: cell-based, mouse; details: for % of Rosiglitazone (comparison with Rosiglitazone): test compound 10 μM/mL versus Rosiglitazone 0.1 μM; for Fold vehicle (fold activity over vehicle): test compound 10 μM/mL, glucose uptake with 200 nM insulin, vehicle = 1.0
Source text: A suitable insulin resistance assay includes screening of compounds which act as insulin-sensitizers using chronically dexamethasone treated 3T3-L1 adipocytes as an in vitro model. This is a known model for studying insulin signaling and insulin resistance. Chronically dexamethasone treated 3T3-L1 adipocytes serve as a valid in vitro model of insulin resistance resembling diabetes patients.
In an embodiment, the method according to the present invention includes screening compounds identified as active in the phenotype-based assay against dexamethasone treated insulin resistant adipocytes. For example, the method can include applying actives from the insulin sensitivity assay at a concentration of 1-10 μM to the insulin resistant adipocytes for 1-4 days. The adipocytes were previously prepared for the assay by long term exposure to dexamethasone, for example, at 100 nM for about 24-48 hours.
The method can also include determining whether the compounds enhance glucose uptake in the insulin resistant adipocytes by more than 50% above that enhanced by insulin. The method can then include selecting compounds as active, if they caused 1.5 fold or more increase in glucose uptake compared to insulin treated adipocytes. Glucose uptake can be measured by any of a variety of known methods, such as measuring uptake of ^14C-labeled 2-deoxyglucose, a non metabolisable analogue of D-Glucose.
The assay was designed as in the reference, British Journal of Pharmacology, 130, 351-58, 2000, which is incorporated herein by reference for disclosure of the assay.
The solution of test compound (10 μM/mL) was prepared in DMSO.
Rosiglitazone (0.1 μM in DMSO) was used as standard.
Differentiation into adipocytes was induced by known methods as described below. (J. Biol. Chem., 260, 2646-2652, 1985, which is incorporated herein by reference for disclosure of the induction).
Culture medium containing […] 1-methyl-3-isobutylxanthine (IBMX), 0.25 μM dexamethasone, 5 μg/ml insulin (bovine/human), 10 mM HEPES buffer and fetal bovine serum (FBS) 10% by volume in Dulbecco's modified Eagle's medium (DMEM) was used for differentiation.
3T3 L1 fibroblasts were seeded in 24-well or 6-well plates at a density of 0.5-2×10^4 cells/well and were allowed to reach maximal confluency.
The confluent fibroblasts were exposed to culture medium for 2 days. After this period, fresh culture medium (DMEM) containing only insulin was used, 10% FBS was added and cultured for 4 days with change of medium every 2 days. After 7 days the cultures received DMEM containing 10% FBS with no exposure to insulin. By the end of 8-10 days, more than 95% of the cells have become differentiated into adipocytes.
The mature adipocytes were exposed to dexamethasone, 100 nM added in ethanol, in culture medium and incubated for 2 days. On the third day, solution of test compound was added along with 100 nM dexamethasone containing medium for 4 days with a change in medium after every 2 days. Vehicle control contained 1% v/v of DMSO. Rosiglitazone was used as a standard and was added at a concentration of 0.1 μM in DMSO, along with 100 nM dexamethasone containing medium for 4 days with a change in medium after every 2 days. After a total period of 6 days, the cells were processed for glucose uptake as follows.
The insulin resistant adipocytes were exposed to serum-free DMEM containing 0.1% bovine serum albumin for 3-4 hours at 37° C. in CO2 atmosphere. The test compound was also present during this period. After 3-4 hours, the medium was aspirated and replaced with Kreb's Ringer phosphate (KRP) buffer at pH 7.4 and with human/porcine insulin, 200 nM. The cells were incubated for 30 minutes at 37° C. At the end of 30 minutes, 0.05 or 0.1 μCi of ^14C-2-deoxyglucose was added to each well of either 24-well or 6-well plates respectively and was incubated for exactly 5 minutes. After exactly 5 minutes, the plates were transferred to ice trays and medium was rapidly aspirated. […]

[2] = test system: genetically diabetic db/db BL/6J mice; assay: Screening in db/db BL/6J mice, plasma glucose reduction; type: in vivo; details: 10 days
Protocol: In an embodiment, the method includes selecting 6-8 weeks old male db/db mice based on blood glucose levels determined after withholding feed for four hours. For example, the method can employ animals with plasma glucose levels in a suitable range, such as 300-500 mg/dl. The selected mice can be orally dosed with test (lead) compound, for example, in 0.5% carboxy methyl cellulose (CMC) vehicle at a suitable frequency and for a suitable time, such as twice daily for 10 consecutive days. This embodiment of the method can include obtaining blood on, for example, day 5 and day 10, after withholding feed for four hours, and determining plasma glucose levels. These levels can be determined using enzymatic methods (e.g., Diasys kit, Germany) in an autoanalyser. Lead compounds are considered to be in vivo actives if they produce statistically significant fall in plasma glucose on day 10 compared to mice treated with 0.5% CMC vehicle. Rosiglitazone can be used as a standard at 5 mg per kg (mpk) bid for comparison with test compounds.
The protocol was designed as in references. • 1.
The screening of compounds was based on their ability to reduce the plasma glucose levels in genetically diabetic db/db BL/6J mice.
Male db/db mice (obtained from the Animal House of Nicholas Piramal Research Centre, Goregaon, Mumbai, India) were used for this study (body weight in the range of 30-40 g and age is 6-8 weeks) and were kept eight per cage in individually ventilated cages at controlled temperature (22±1° C.) and humidity (45±5%). Food and water were provided ad libitum during their laboratory stay, except for four hours fasting prior to blood sample collection. 12 hours light and dark cycle was followed during the whole study period.
After 4 hours fasting blood samples were collected from mice. Mice showing plasma glucose levels between 300 to 500 mg/dl were divided in groups (8-10 per group) such that the mean plasma glucose levels and variation within the group, for each group, is nearly same. After grouping, mice in respective groups received treatment with 0.5% CMC vehicle, standard compound or test compounds for 10 days. Rosiglitazone was used as a standard.
After 4 hours fasting, mice were anaesthetized using isoflurane (inhalation anesthetic), and blood samples were collected through the retro orbital plexus. Collected blood samples were centrifuged at 7000 rpm for 10 minutes at 4° C.; Separated plasma was used for estimation of plasma glucose using diagnostic kits (Diasys, Germany). Plasma glucose levels of treated groups were normalized with control group using the following formula, which accounted for the changes in control group.

[3] = test system: diet induced obese (DIO) mice; assay: Evaluation of antiobesity, chronic study in diet induced obese mice; type: in vivo; details: 10 days, vs vehicle
Source text: In an embodiment, the method includes selecting 17-18 week old male diet induced obese (DIO) mice, which were maintained on a high fat diet (D12451, Research Diets Inc, New Brunswick, N.J. 08901, USA, 45% kcal from fat), based on body weight. The selected mice can be dosed intraperitoneally with test (lead) compound, for example, in 0.5% CMC vehicle at a suitable frequency and for a suitable time, such as once daily for 10 consecutive days. This embodiment of the method can include recording body weight and food weight daily. Lead compounds are considered to be in vivo active if they produce statistically significant decrease in cumulative food intake for up to 1 day and a statistically significant decrease in cumulative body weight gain on day 10 as compared to mice treated with the 0.5% CMC vehicle. Sibutramine can be used as a standard at 3 mpk for comparison.
The assay was designed as in the reference, British Journal of Pharmacology, 132, 1898-1904, 2001, the disclosure of which is incorporated by reference for the teaching of the assay.
Male C57BI6/J mice (3-4 weeks of age) were housed in groups of 10 animals per cage in the animal facility. High fat diet (D12451 Research Diets Inc., New Brunswick, N.J. 08901, USA, 45% kcal from fat) and water was provided ad libitum for 14 weeks. After this period, the animals were housed individually in cages. The animals were weighed and separated into groups with similar body weight. They were acclimatised to the experimental procedures for 2 days. Animals were dosed intraperitoneally with test compound (200 mpk) or the standard (3 mpk) in 10 mL/kg of 0.5% CMC vehicle between 10:00 am-12:00 noon. After drug administration the animals were presented with a pre-weighed amount of food in the food cup. Weight of feed remaining in the cup and body weight were recorded daily just prior to dosing. The change in weight and cumulative food intake were computed.

db/db mice = assay: Evaluation of lipid levels (dyslipidemia) in db/db mice; type: in vivo; details: 15 days
Protocol: (§1) Body weight was measured daily. On day 15, the animals were deprived of food for 4 hours after the last dose administration. Blood was collected at the end of the 4-hour period using heparinised capillaries by a retro-orbital puncture. Plasma samples were analyzed for, triglyceride and cholesterol, using the autoanalyser.
The assay was designed as in the reference, Metabolism, 49 (1), 22-31, 2000, the disclosure of which is incorporated by reference for the teaching of the assay.
as §1, with “Seven groups of male db/db mice (8 animals per group) were used. […] Body” for “Body”, “for glucose, triglyceride,” for “for, triglyceride and”

Row | SMILES | % of Rosiglitazone (comparison with Rosiglitazone) [1] [%] | Fold vehicle (fold activity over vehicle) [1] | Normalization with control (plasma glucose reduction) ([2]; 100 mpk bid, oral, 4 h fasted) | further results
1 | COc1ccc(S(=O)(=O)Nc2cnc(Oc3cnc4ccccc4c3)c(Cl)c2)cc1 [Compound 8, N-[5-Chloro-6-(quinolin-3-yloxy)-pyridine-3-yl]-4-methoxy-benzene sulfonamide] | 66.4 ± 5.2 | 2.19 ± 0.09 | 41.90 ± 3.84 | 
2 | CC(=O)N1CCN(c2ccc(Oc3ncc(NC(=O)CCC(=O)O)cc3Cl)cc2)CC1 [Compound 7] | 27.5 ± 3.0 | 1.49 ± 0.05 | Inactive | 
3 | CC(C)CC(N(C)C)C1(c2ccc(Cl)cc2)CCC1 (stereo not shown) [Sibutramine, reference compound] |  |  |  | cumulative food intake ([3]; standard 3 mpk intraperitoneally, FIG. 4): significantly inhibited food intake; cumulative body weight gain ([3]; standard 3 mpk intraperitoneally, FIG. 5): inhibited body weight gain on all days
4 | CCOC(=O)CCN1Cc2cc(NCCN(C)c3nc4ccccc4o3)ccc2C1=O [Compound 4, 3-{5-[2-(Benzooxazol-2-yl-methyl-amino)-ethylamino]-1-oxo-1,3-dihydro-isoindol-2-yl}propionic acid ethyl ester] | 76.8 ± 12.4 | 1.88 ± 0.14 |  | Normalization with control (plasma glucose reduction) ([2]; 50 mpk bid): 24.99 ± 17.92
5 | COC(Cc1ccc(OCCN(C)C(=O)OC(C)(C)C)cc1)C(=O)O (stereo not shown) [Compound 2, 3-{4-[2-(tert-Butoxycarbonyl-methyl-amino)-ethoxy]-phenyl}-2-methoxy-propionic acid] | 105 ± 3.6 | 2.62 ± 0.05 | 45.14 ± 4.92 | 
6 | CC(=O)N1CCN(c2ccc(Oc3ncc(NS(=O)(=O)c4ccc(Cl)cc4Cl)cc3Cl)cc2)CC1 [Compound 6, N-{6-[4-(4-Acetyl-piperazin-1-yl)-phenoxy]-5-chloro-pyridin-3-yl}-2,4-dichloro benzenesulfonamide] | 61.4 ± 3.15 | 2.10 ± 0.05 | 46.07 ± 4.55 | cumulative food intake ([3]; 200 mpk intraperitoneally, FIG. 4, 200 mg/kg): effective in reducing cumulative food intake; also recorded: significantly inhibited food intake; cumulative body weight gain ([3]; 200 mpk intraperitoneally, FIG. 5, 200 mg/kg): effective in reducing cumulative body weight gain; also recorded: inhibited body weight gain on all days
7 | CC(C)(COC(=O)COc1ccc(C(=O)CN2Cc3cc(C(N)=S)ccc3C2=O)cc1)NS(=O)(=O)c1cccnc1 [Compound 3, {4-[2-(1-Oxo-5-thiocarbamoyl-1,3-dihydro-isoindol-2-yl)-acetyl]-phenoxy}-aceticacid-2-methyl-2-(pyridine-3-sulfonylamino)-propyl ester] | 31.6 ± 6.2 | 1.48 ± 0.09 |  | Normalization with control (plasma glucose reduction) ([2]; 50 mpk od): Inactive
8 | O=S(=O)(Nc1cnc(Oc2cc3ccccc3cn2)c(Cl)c1)c1ccc(Cl)cc1Cl [Compound 5, 2,4-Dichloro-N-[5-chloro-6-(isoquinolin-3-yloxy)pyridin-3-yl]-benzene sulfonamide] | 78.7 ± 3.5 | 2.41 ± 0.06 |  | Normalization with control (plasma glucose reduction) ([2]; 150 mpk od): 43.2 ± 15.7; reduction in cholesterol levels (db/db mice; doses higher than 50 mpk oral bid): 26%
9 | COC(=O)C(Cc1ccc(OCCN(C)C(=O)OC(C)(C)C)cc1)(OC)C(=O)OC [Compound 1, 2-{4-[2-(tert-Butoxycarbonyl-methyl-amino)-ethoxy]-benzyl}-2-methoxy-malonic acid dimethyl ether] | 72.5 ± 2.6 | 2.2 ± 0.18 | 42.93 ± 4.95 | 
10 | CN(CCOc1ccc(CC2SC(=O)NC2=O)cc1)c1ccccn1 (stereo not shown) [Rosiglitazone] |  |  |  | decrease in plasma triglyceride levels (db/db mice; Rosiglitazone 5 mpk oral bid): 40%; reduction in cholesterol levels (db/db mice; Rosiglitazone 5 mpk oral bid): 27%
